Laboratory results as given in the supplement of paper PMC10307832.

Columns and labels:
Assay in all cases: relative viability (nuclei count vs DMSO), 5 days (fraction); higher = more cells survive
[1] = compound: O=C(/C=C/c1cccnc1)NCCCCC1CCN(C(=O)c2ccccc2)CC1 [Daporinad] + Cc1nc(NC(=O)N2CCC[C@H]2C(N)=O)sc1-c1ccnc(C(C)(C)C(F)(F)F)c1 [Alpelisib] (partner 2 µM)
Method in brief: (§1)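 Relative viability is defined as nuclei in treated wells over nuclei in vehicle wells. Duplicate plates were run and medians reported. Lung cancer cell lines in 1536-well plates were dosed by pin tool one day after seeding, with one drug or with a fixed anchor-drug dose plus five library-drug doses (not always all listed) in √10 steps, and nuclei were counted after 5 days.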

[2] = compound: COc1cc(Nc2ncc(F)c(Nc3ccc4c(n3)NC(=O)C(C)(C)O4)n2)cc(OC)c1OC [R406] + N=C(N)NC(=N)NCCc1ccccc1 [Phenformin] (partner 250 µM)
Method in brief: as §1

[3] = compound: COc1cc(Nc2ncc(F)c(Nc3ccc4c(n3)NC(=O)C(C)(C)O4)n2)cc(OC)c1OC [R406] + CC1(C)CCC(c2ccc(Cl)cc2)=C(CN2CCN(c3ccc(C(=O)NS(=O)(=O)c4ccc(N[C@H](CCN5CCOCC5)CSc5ccccc5)c(S(=O)(=O)C(F)(F)F)c4)cc3)CC2)C1 [Navitoclax] (partner 0.5 µM)
Method in brief: as §1

[4] = compound: O=C(/C=C/c1cccnc1)NCCCCC1CCN(C(=O)c2ccccc2)CC1 [Daporinad] + CCNC(=O)c1noc(-c2cc(C(C)C)c(O)cc2O)c1-c1ccc(CN2CCOCC2)cc1 [Luminespib] (partner 0.01 µM)
Method in brief: as §1

Cell Line | relative viability ([1]; first compound 0.0005 µM) | relative viability ([1]; first compound 0.001581 µM) | relative viability ([1]; first compound 0.005 µM) | relative viability ([1]; first compound 0.01581 µM) | relative viability ([2]; first compound 0.08 µM) | relative viability ([2]; first compound 0.253 µM) | relative viability ([2]; first compound 0.8 µM) | relative viability ([2]; first compound 2.53 µM) | relative viability ([2]; first compound 8 µM) | relative viability ([3]; first compound 0.08 µM) | relative viability ([3]; first compound 0.253 µM) | relative viability ([3]; first compound 0.8 µM) | relative viability ([3]; first compound 2.53 µM) | relative viability ([3]; first compound 8 µM) | relative viability ([4]; first compound 0.0005 µM) | relative viability ([4]; first compound 0.001581 µM) | relative viability ([4]; first compound 0.005 µM) | relative viability ([4]; first compound 0.01581 µM)
201T | 0.983 | 1.05 | 1 | 0.987 | 0.416 | 0.483 | 0.431 | 0.367 | 0.351 | 1.16 | 1.15 | 1.17 | 1.19 | 1.18 | 1.04 | 1.02 | 1.12 | 1.11
A549 | 0.764 | 0.804 | 0.879 | 0.572 | 0.142 | 0.21 | 0.122 | 0.155 | 0.0767 | 0.932 | 1.2 | 1.26 | 1.31 | 0.675 |  |  |  | 
A-427 | 0.948 | 1.15 | 1.04 | 0.852 | 0.382 | 0.335 | 0.316 | 0.171 | 0.134 | 0.912 | 1.02 | 0.981 | 0.572 | 0.78 | 0.959 | 0.953 | 0.742 | 0.671
ABC-1 | 1.21 | 1.18 | 0.969 | 0.989 | 0.227 | 0.225 | 0.236 | 0.197 | 0.201 |  |  |  |  |  | 0.524 | 0.583 | 0.527 | 0.498
BEN | 0.924 | 0.979 | 1.08 | 1.27 | 0.267 | 0.283 | 0.256 | 0.26 | 0.249 | 0.0867 | 0.0733 | 0.0583 | 0.0663 | 0.0726 | 0.356 | 0.559 | 0.456 | 0.437
CAL-12T | 1.28 | 1.04 | 0.832 | 0.411 | 0.57 | 0.667 | 0.668 | 0.353 | 0.14 | 1.16 | 1.21 | 1.26 | 1.05 | 1.06 | 0.17 | 0.41 | 0.545 | 0.193
COR-L23 | 0.891 | 1.01 | 0.691 | 0.183 | 0.416 | 0.456 | 0.501 | 0.379 | 0.261 | 0.951 | 1.04 | 1.1 | 0.836 | 0.451 | 0.615 | 0.696 | 0.734 | 0.199
COR-L 105 | 1.14 | 1.02 | 1.12 | 1.06 | 0.495 | 0.569 | 0.602 | 0.366 | 0.224 | 0.858 | 0.755 | 1.02 | 0.805 | 0.558 | 0.807 | 0.805 | 0.82 | 0.738
Calu-6 | 0.934 | 0.96 | 1.09 | 0.519 |  |  |  |  |  | 0.798 | 0.809 | 0.949 | 0.579 | 0.316 |  |  |  | 
ChaGo-K-1 |  |  |  |  | 0.491 | 0.508 | 0.657 | 0.42 | 0.403 | 0.969 | 1.16 | 1.01 | 0.947 | 0.44 | 0.529 | 0.508 | 0.425 | 0.414
EBC-1 | 0.761 | 0.901 | 0.935 | 0.859 |  |  |  |  |  | 0.433 | 0.403 | 0.422 | 0.317 | 0.189 |  |  |  | 
EKVX | 0.83 | 0.87 | 0.873 | 1.18 | 0.23 | 0.254 | 0.245 | 0.208 | 0.178 | 0.814 | 1.03 | 0.932 | 0.77 | 0.521 | 0.889 | 0.933 | 0.839 | 0.922
EMC-BAC-2 | 0.822 | 0.773 | 0.544 | 0.223 | 0.516 | 0.587 | 0.616 | 0.388 | 0.198 | 1.11 | 1.38 | 1.31 | 1.12 | 0.917 | 1.19 | 1.22 | 1.25 | 0.331
EPLC-272H | 0.942 | 1.02 | 0.84 | 1.08 | 0.278 | 0.371 | 0.333 | 0.25 | 0.207 | 1.03 | 1.18 | 1.21 | 0.63 | 0.589 | 0.237 | 0.433 | 0.388 | 0.393
H3255 | 0.696 | 0.812 | 0.725 | 0.702 | 0.366 |  | 0.352 | 0.369 | 0.311 | 0.488 | 0.731 | 0.541 | 0.312 | 0.14 | 0.832 | 0.995 | 0.929 | 1.1
HARA | 0.702 | 0.955 | 0.638 | 0.176 | 0.386 | 0.508 | 0.548 | 0.377 | 0.324 | 1.05 | 1.14 | 1.12 | 1.19 | 0.453 | 0.761 | 0.621 | 0.837 | 0.175
HCC-15 | 0.89 | 0.931 | 1.05 | 0.901 | 0.467 | 0.606 | 0.595 | 0.445 | 0.234 | 0.732 | 0.77 | 0.781 |  | 0.509 | 0.309 | 0.446 | 0.372 | 0.329
HCC-44 | 0.817 | 0.937 | 0.825 | 0.864 | 0.15 | 0.22 | 0.196 | 0.18 | 0.127 | 0.915 | 1.04 | 1.05 | 1.04 | 0.316 | 1.07 | 1.12 | 0.942 | 1.28
HCC-78 | 0.296 | 0.368 | 0.285 | 0.425 | 0.544 | 0.751 | 0.842 | 0.611 | 0.392 | 0.729 | 0.899 | 0.876 | 0.508 | 0.43 |  |  |  | 
HCC-366 | 0.44 | 0.503 | 0.542 | 0.616 | 0.627 | 0.622 | 0.721 | 0.521 | 0.254 | 0.855 | 1.18 | 1.16 |  | 0.663 |  |  |  | 
